We go through ten compounds from ChEMBL document CHEMBL1201862, “PubChem BioAssay data set” (2004).

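These data come from cells grown in 96-well plates and exposed to compound for 48 hours at five concentrations. Here, GI50 denotes the concentration required for 50% inhibition of growth.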 Calls of active or inactive are those of the source. Rule as the data show it: active = GI50 up to about 1.1 µM and inactive = higher.

Test systems include DU-145; NCI-H460; HCT-15; UACC-257; HOP-92; Hs-578T; HL-60; 786-0; EKVX; UO-31; LOX IMVI; U-251; NCI-H522; HT-29; OVCAR-3; M14; SF-295; MOLT-4; BT-549; KM12.
What all share (experiment): NCI tumour cell line growth inhibition, 48 h

Take `O=C(O)C(Cc1ccc(O)c([N+](=O)[O-])c1)N1C(=O)c2ccccc2C1=O` (stereo not given): the GI50 with DU-145 was > 100 µM (inactive); in the test on NCI-H460 it was > 100 µM (inactive); in the test on HCT-15 it was above 100 µM; with UACC-257 it was > 100 µM (inactive); in the test on HOP-92 it was > 100 µM (inactive); in the test with Hs-578T, > 100 µM (inactive). The GI50 in the test with HL-60 was 18.6 µM (inactive); in the test on 786-0, > 100 µM (inactive); in the test on EKVX it was > 100 µM (inactive); in the test on UO-31, > 100 µM (inactive); in the test with LOX IMVI it was > 100 µM (inactive); with U-251 it was > 100 µM (inactive). Besides, the GI50 in the test with NCI-H522, in the test on HT-29, with OVCAR-3, in the test with M14, with SF-295 and in the test with MOLT-4 was > 100 µM (inactive) in each case. Also, the GI50 in the test with BT-549 and in the test with KM12 was > 100 µM (inactive) throughout.
For `C/C1=C/C(C)CC(C)OC(=O)C(C)NC(=O)C(Cc2ccc(O)c(I)c2)N(C)C(=O)CNC(=O)C(C)C1` (stereo not given), the GI50 in the test on DU-145 was 0.0643 µM (active); in the test on NCI-H460, < 0.01 µM (active); in the test on HCT-15 it was below 0.0121 µM; in the test on UACC-257, < 0.01 µM (active); with HOP-92, < 0.0112 µM (active); in the test on Hs-578T, < 0.0109 µM (active). The GI50 was < 0.01 µM (active) in the test on HL-60; < 0.01 µM (active) in the test with 786-0; 0.0443 µM (active) with EKVX; < 0.0109 µM (active) in the test on UO-31; < 0.01 µM (active) in the test with LOX IMVI; < 0.01 µM (active) in the test on U-251. Further, the GI50 in the test with NCI-H522 is < 0.01 µM (active); in the test on HT-29, < 0.01 µM (active); in the test with OVCAR-3 it was < 0.01 µM (active); with M14, 0.0102 µM (active); with SF-295, 0.0101 µM (active); in the test on MOLT-4, < 0.0178 µM (active). Also, the GI50 in the test with BT-549 and with KM12 was < 0.01 µM (active) throughout.
On to `C=C(C)C1CC=C(C)C2(C1)OCC(C)(C)C(C)O2` (stereo not given), for which the GI50 was 31 µM (inactive) with DU-145; 26.1 µM (inactive) with NCI-H460; 16.4 µM in the test with HCT-15; 21.1 µM (inactive) in the test with UACC-257; 11.2 µM (inactive) in the test on HOP-92; 27.9 µM (inactive) with Hs-578T. In addition, the GI50 is 15 µM (inactive) in the test on HL-60; 17.6 µM (inactive) with 786-0; 24.7 µM (inactive) in the test with EKVX; 20.3 µM (inactive) in the test with UO-31; 17.5 µM (inactive) with LOX IMVI; 16.7 µM (inactive) in the test with U-251. The GI50 with NCI-H522 is 17.7 µM (inactive); in the test on HT-29 it was 15.5 µM (inactive); in the test with OVCAR-3, 16.1 µM (inactive); in the test with M14 it was 22.2 µM (inactive); in the test with SF-295, 19.5 µM (inactive); in the test with MOLT-4, 20.1 µM (inactive). Also, the GI50 in the test with BT-549 was 17.3 µM (inactive); in the test on KM12, 16.9 µM (inactive).
With `COC(=O)C1Cc2cccc(C)c2C1` (stereo not given), the GI50 is > 100 µM (inactive) in the test with DU-145; > 100 µM (inactive) with NCI-H460; 37.3 µM with HCT-15; > 100 µM (inactive) in the test with UACC-257; > 100 µM (inactive) with HOP-92; > 100 µM (inactive) in the test with Hs-578T. In addition, the GI50 in the test with HL-60 was 65.5 µM (inactive); in the test with 786-0, > 100 µM (inactive); with EKVX, > 100 µM (inactive); with UO-31 it was > 100 µM (inactive); in the test with LOX IMVI, 42 µM (inactive); in the test with U-251 it was 89.3 µM (inactive). Also, the GI50 in the test with NCI-H522 is 51.8 µM (inactive); with HT-29, > 100 µM (inactive); in the test on OVCAR-3, > 100 µM (inactive); in the test with M14, > 100 µM (inactive); with SF-295 it was > 100 µM (inactive); in the test with MOLT-4, 46.6 µM (inactive). For the same compound, the GI50 in the test with BT-549 and in the test with KM12 was > 100 µM (inactive) in each case.
Take `O=C(N/N=C/c1ccc([N+](=O)[O-])cc1)Nc1ccc(C(=O)O)cc1`: the GI50 is 29.9 µM (inactive) with DU-145; 26.5 µM (inactive) with NCI-H460; 25.5 µM in the test on HCT-15; 28.4 µM (inactive) with UACC-257; 16.9 µM (inactive) in the test with HOP-92; 45.4 µM (inactive) with Hs-578T. The GI50 in the test on HL-60 is 37.2 µM (inactive); with 786-0, 39.1 µM (inactive); with EKVX, 23.1 µM (inactive); in the test on UO-31, 22.1 µM (inactive); in the test on LOX IMVI, 31.3 µM (inactive); in the test on U-251, 28.2 µM (inactive). The GI50 is 7.85 µM (inactive) with NCI-H522; 23.8 µM (inactive) in the test with HT-29; 4.54 µM (inactive) in the test on OVCAR-3; 37.4 µM (inactive) with M14; 17.4 µM (inactive) in the test with SF-295; 22.9 µM (inactive) in the test on MOLT-4. Moreover, the figures for the GI50 with BT-549 and with KM12 were 35.2 µM (inactive) and 27.7 µM (inactive), respectively.
`Cc1ccc(/C=C2\CNC/C(=C\c3ccc(C)cc3)C2=O)cc1`: the GI50 in the test with DU-145 was 4.48 µM (inactive); in the test on NCI-H460 it was 1.48 µM (inactive); in the test on HCT-15, 1.49 µM; in the test on UACC-257, 6.46 µM (inactive); in the test with HOP-92 it was 4.54 µM (inactive); with Hs-578T it was 1.89 µM (inactive). The GI50 was 0.479 µM (active) with HL-60; 1.35 µM (inactive) with 786-0; 3.92 µM (inactive) in the test with EKVX; 1.77 µM (inactive) in the test on UO-31; 0.615 µM (active) with LOX IMVI; 0.341 µM (active) in the test with U-251. Further, the GI50 in the test with NCI-H522 was 1.87 µM (inactive); in the test with HT-29, 0.617 µM (active); in the test on OVCAR-3, 2.96 µM (inactive); in the test with M14 it was 2.26 µM (inactive); in the test with SF-295 it was 3.54 µM (inactive); in the test on MOLT-4, 2.22 µM (inactive). In addition, the GI50 with BT-549 is 2.24 µM (inactive); in the test with KM12, 1.05 µM (active).
Turning to `O=C1Nc2cccc3cc(NCC(O)CCl)cc1c23` (stereo not given), the GI50 in the test on DU-145 was 97.5 µM (inactive); with NCI-H460, > 100 µM (inactive); in the test with HCT-15 it was 48.9 µM; in the test on UACC-257 it was > 100 µM (inactive); in the test on HOP-92 it was 55.5 µM (inactive); in the test on Hs-578T, 38 µM (inactive). For the same compound, the GI50 is > 100 µM (inactive) with HL-60; 55 µM (inactive) in the test on 786-0; 32.5 µM (inactive) in the test with EKVX; 31.3 µM (inactive) in the test with UO-31; 27.3 µM (inactive) in the test with LOX IMVI; 32.9 µM (inactive) in the test on U-251. Further, the GI50 in the test on NCI-H522 was 59.2 µM (inactive); in the test on HT-29 it was 58.7 µM (inactive); in the test on OVCAR-3 it was 51.4 µM (inactive); in the test with M14, 56.1 µM (inactive); in the test with SF-295, 73.1 µM (inactive); in the test with MOLT-4, 22.8 µM (inactive). For the same compound, the GI50 is 39.9 µM (inactive) in the test with BT-549 and 35.2 µM (inactive) in the test with KM12.
With `C=CCc1[nH]c2c(OCc3ccccc3)cc(N(CC=C)C(C)=O)cc2c1C`, the GI50 with DU-145 was 14.1 µM (inactive); in the test on NCI-H460, 14.8 µM (inactive); with HCT-15, 12.9 µM; in the test with UACC-257, 16 µM (inactive); with HOP-92, 12.7 µM (inactive); in the test on Hs-578T, 14.2 µM (inactive). For the same compound, the GI50 is 12.8 µM (inactive) in the test with HL-60; 14.2 µM (inactive) in the test on 786-0; 8.45 µM (inactive) in the test on EKVX; 9.08 µM (inactive) in the test with UO-31; 12.5 µM (inactive) in the test on LOX IMVI; 12.8 µM (inactive) with U-251. For the same compound, the GI50 in the test with NCI-H522 was 13 µM (inactive); in the test with HT-29, 8.04 µM (inactive); with OVCAR-3 it was 14.3 µM (inactive); in the test with M14 it was 10.1 µM (inactive); in the test with SF-295, 13 µM (inactive); with MOLT-4, 5.77 µM (inactive). The GI50 in the test on BT-549 is 15.8 µM (inactive); in the test on KM12, 13.3 µM (inactive).
For the compound `C/C=C1/CN2CCC3(O)c4ccccc4N4C=C(C(=O)OC)C1CC2C43O` (stereo not given), the GI50 was > 100 µM (inactive) in the test with DU-145; > 100 µM (inactive) with NCI-H460; above 100 µM in the test on HCT-15; > 100 µM (inactive) in the test on UACC-257; > 100 µM (inactive) in the test on HOP-92; > 100 µM (inactive) in the test with Hs-578T. Further, the GI50 with HL-60, with 786-0, in the test with EKVX, in the test on UO-31, in the test on LOX IMVI and with U-251 was > 100 µM (inactive) each time. Moreover, the GI50 with NCI-H522 was > 100 µM (inactive); in the test with HT-29 it was > 100 µM (inactive); in the test on OVCAR-3, > 100 µM (inactive); in the test on M14, > 100 µM (inactive); in the test on SF-295, > 100 µM (inactive); in the test with MOLT-4, 84.1 µM (inactive). Besides, the GI50 in the test on BT-549 and with KM12 was > 100 µM (inactive) each time.
Turning to `O=C(NNC(=O)c1ccccc1O)c1ccccc1O`, the GI50 in the test with DU-145 is 0.0445 µM (active); in the test with NCI-H460 it was 0.15 µM (active); in the test on HCT-15, 0.11 µM; in the test with UACC-257, 0.376 µM (active); in the test with HOP-92 it was 2.25 µM (inactive); in the test on Hs-578T it was 0.0149 µM (active). Moreover, the GI50 in the test on HL-60 is 0.0528 µM (active); with 786-0, 0.141 µM (active); in the test with EKVX, 1.17 µM (inactive); in the test on UO-31, 0.022 µM (active); in the test on LOX IMVI, 0.0918 µM (active); in the test on U-251, 0.116 µM (active). Besides, the GI50 in the test on NCI-H522 was 0.112 µM (active); in the test on HT-29, 6.71 µM (inactive); in the test with OVCAR-3, 0.258 µM (active); with M14, 0.0785 µM (active); with SF-295 it was 0.189 µM (active); in the test with MOLT-4 it was 0.0385 µM (active). Further, the GI50 was 0.0426 µM (active) in the test with BT-549 and 0.413 µM (active) with KM12.
